Tests used:
[1] = Photostability (dye photobleaching under irradiation); format: physicochemical; conditions: for photobleached: after 60 minutes of irradiation at 620 nm, PBS pH 7.0, absorbance matched (FIG. 4); for photobleaching: irradiated for an hour at 620 nm, PBS pH 7.0, A620 nm<0.1 (FIG. 7)
Protocol: Photostability data were collected on a Horiba Jobin Yvon Fluorolog-3 spectrofluorometer (Edison, N.Y.) equipped with a 450 W xenon lamp (Ushio inc. Japan). Dye photobleaching was observed by monitoring the fluorescence emission of absorbance matched dye samples (absorbance <0.1) at an excitation wavelength 620 nm for 60 minutes. […] Thus, CyAm-5 acid has 28% better photostability than Cy5.
Dye samples with the same absorption (A620 nm<0.1) were irradiated for an hour at 620 nm. Both bio-conjugatable new dyes, CyAm-5 acid and CycloCyAm-5 acid with photobleaching of 30% and 12%, respectively, were more photostable than Cy5 (45%).

[2] = cited from earlier work; for λem: as indicated on www.gelifesciences.com
[3] = as indicated on www.gelifesciences.com; cited from earlier work
[4] = Absorption spectra and extinction coefficients of the fluorophores; format: physicochemical; conditions: PBS, pH 7.0
Protocol: Absorption spectra and extinction coefficients of the fluorophores were obtained on a Varian Cary 50-Bio UV-visible spectrophotometer. Extinction coefficients were measured in phosphate-buffered saline (PBS), 10 mM phosphate buffer pH 7.0, […] potassium chloride and 137 mM sodium chloride and were averaged over at least three sets of parallel experiments. For each trail, 2-3 mg of the HPLC-purified dyes were weighed on a Mettler AT201 analytical balance with an error of ±0.01 mg and were dissolved in deionized water using a 10 mL volumetric flask to prepare the stock solutions.
(§1) FIG. 9 summarizes the optical properties of CyAl-5 and CyAl-5.5. Spectra were obtained in phosphate buffered solution, pH 7.0. The extinction coefficients, at the dye absorption maxima, were performed in triplicate. Emission spectra were excited at 620 nm for CyAl-5 and 640 nm for CyAl-5.5. CyAl-5 and CyAl-5.5, Cy5 and Cy5.5 were used as fluorescence standards, respectively. The data are the average of at least 8 replicates and errors were <5%.

[5] = Emission spectra and fluorescence quantum yield; format: physicochemical; conditions: PBS, pH 7.0
Protocol: Emission spectra were collected on a Varian Cary Eclipse fluorescence spectrophotometer. Quantum yield measurements were performed on at least eight trails for each dye derivative with maximum absorption for each sample less than 0.1, using Cy5 as a standard (Φ=0.27) (Mujumdar, R. B., Ernst, L. A., Mujumdar, S. R., Lewis, C. J., and Waggoner, A. S. (1993) Cyanine dye labeling reagents: sulfoindocyanine succinimidyl esters. Bioconjug. Chem. 4, 105-11). The standard deviation for both the extinction coefficient and quantum yield measurements is less than 5%.
as §1

CHO cells = test: Fluorescence labeling and imaging of azido-sugar modified CHO cells by click reaction; format: cell-based, Chinese hamster; conditions: fixed CHO cells
Protocol: Chinese hamster ovary (CHO) cells were maintained in a 5% CO2, water-saturated atmosphere and grown in F12 HAMS medium supplemented with 10% FBS, 1% penstrep and 1% L-glutamine. For biolabeling experiments, the cells were incubated for 2-3 days in the regular medium or medium supplemented with 100 μM Ac4ManNAc (Molecular probes) in an eight-well LabTek II chamber slide (Nunc). The medium was gently aspirated, and the cells were fixed at −20° C. by methanol for 10 min and then acetone for 1 min. […] Fluorescent images were captured on a Nikon Eclipse TE2000-S fluorescence microscope with 40× objective equipped with a Photometrics Cascade 512B CCD camera using excitation and emission filters from Chroma Technology. […]
Cells incubated with azido-sugar supplemented media (top) or unsupplimented media (bottom) are presented after treatment with CyAm-5 alkyne in the presence of Cu(I)/TBTA as catalyst. Cell nuclei stained with DAPI colored blue (left), fluorescence signal from CyAm-5 alkyne colored red (center) and the merged images (right) are shown. […]
FIGS. 6A-6B show fluorescent imaging of CHO cells labeled with CyAm-5 alkyne and controls. […] Cell nuclei stained with DAPI, fluorescence of labeled CyAm-5 alkyne and merge figures of the two above are shown in column left, middle and right, respectively. […]

photobleached [1] [%] | photobleaching [1] [%] | Molecule | λem [2] [nm] | λabs [3] [nm] | also measured
54 | 45 | CCN1/C(=C/C=C/C=C/C2=[N+](CCCCCC(=O)O)c3ccc(S(=O)(=O)O)cc3C2(C)C)C(C)(C)c2cc(S(=O)(=O)[O-])ccc21 [Cy5] | 664 | 646 | quantum yield of standard (Φ) ([2]; Cy5 used as standard, literature value): 0.27
42 | 30 | CCN1/C(=C/C=C(/C=C/C2=[N+](CC)c3ccc(S(=O)(=O)O)cc3C2(C)C)CCC(=O)Nc2ccc(C(=O)O)cc2)C(C)(C)c2cc(S(=O)(=O)O)ccc21 [CyAm-5 acid] |  |  | better photostability / less photobleaching compared to Cy5 ([1]; after an hour irradiation at 620 nm (FIG. 4)): 28%; absorption maximum [4]: 642 nm; emission maximum [5]: 658 nm
 | 12 | CC1(C)C2=C(/C=C(/C=C3\CCC[N+]4=C3C(C)(C)c3cc(S(=O)(=O)O)ccc34)CCC(=O)Nc3ccc(C(=O)O)cc3)CCCN2c2ccc(S(=O)(=O)O)cc21 [CycloCyAm-5 acid] |  |  | 

Continued, molecule first:

Molecule | photobleached [1] [%] | photobleaching [1] [%] | λem [2] [nm] | λabs [3] [nm] | also measured
C#Cc1cccc(NC(=O)CCC(/C=C/C2=[N+](CC)c3ccc(S(=O)(=O)O)cc3C2(C)C)=C\C=C2\N(CC)c3ccc(S(=O)(=O)O)cc3C2(C)C)c1 [CyAm-5 alkyne] |  |  |  |  | fluorescence signal of cells bearing azido sialic acid versus control cells (CHO cells; 20 μM dye, Cu(I) catalyst (FIG. 5)): increased fluorescence signal; conditions under which enhancement of fluorescence signal is observed (CHO cells; with or without Cu(I), TBTA, azido-sugar (FIG. 6A-B)): only observed in the presence of both catalyst Cu(I) and azido glycans
Cy5.5 |  |  | 693 | 673 | 

— patent publication US8916137B2, “Monofunctional carbocyanine dyes for in vivo and in vitro imaging” (The General Hospital Corporation, priority 2008, dated 2014)
